Measurements published in PMC11720353, “Clove Essential Oil as a Source of Antitumoral Compounds Capable of Crossing the Blood–Brain Barrier: A Focus on the Effects of β-Caryophyllene and Eugenol in a Glioblastoma Cell Line” (International Journal of Molecular Sciences, 2024).

How the values were obtained:
HMC3 cells [1] = test: Cell death assay (Annexin V/PI, flow cytometry); type: cell-based, human; settings: EU 200 µM, BCA 125 µM, alone or in combination, 24 h
Description: HMC3 and U87 cells were seeded in duplicate into 12-well plates (10 × 10^4 cells/well). After 24 h of incubation at 37 °C and 5% CO2, the medium was replaced, and the cells were treated either with EU (200 µM) or BCA (125 µM), alone and in combination (EU 200 µM + BCA 125 µM). Following the 24 h treatment, the cells were co-stained with AV-APC and PI according to the manufacturer’s protocol (Biolegend, San Diego, CA, USA). Briefly, the cells were resuspended in binding buffer (100 µL) and incubated with AV-APC solution (5 µL) and PI solution (2 µL) for 15 min at room temperature. Then, the cells were diluted in a binding buffer (400 µL). A six-parameter, four-color FACSCalibur flow cytometer (Becton Dickinson, San Jose, CA, USA) was used, and at least 10,000 events were collected by acquisition using CellQuest software (Becton Dickinson, San Jose, CA, USA). The results were analyzed with the Paint-a-Gate software and expressed in percentage (%).

HMC3 cells [2] = test: Quantitative real-time PCR of mRNA levels; type: cell-based, human; settings: 24 h
Description: (§1) An analysis of the genes involved in angiogenesis, tumor progression and proliferation were performed. In particular, we analyzed the genes involved in the cell cycle and in three different apoptotic pathways: B-cell lymphoma-2 (BCL2), Bcl-2-like protein 1 (BCL2L1), Bcl-2 Associated X-protein (BAX), BCL2 Antagonist/Killer 1 (BAK-1) and Caspase 9 (CASP9) as the key genes of the intrinsic mitochondrial pathway; and Phosphatase and tensin homolog (PTEN), Tumor protein p53 (TP53), Murine double minute 2 (MDM2), Cyclin-dependent kinase 4 (CDK4) and Vascular endothelial growth factor A (VEGFA) mRNA levels were assessed by quantitative real-time PCR (qRT-PCR). HMC3 and U87 cells were seeded with a density of 1 × 10^6 cells per well and incubated for 24 h at 37 °C and 5% CO2. Thereafter, the cells were treated either with EU (200 μM) or BCA (125 μM) alone and in combination (EU 200 μM + BCA 125 μM). Total RNA was extracted using the TripleXtractor solution (GRISP, Lisbon, Portugal) according to the manufacturer's protocol. RNA was converted into cDNA through the […] Synthesis Supermix (GRISP, Lisbon, Portugal). Each optimized reaction was performed using […] SYBR Green Mastermix 2X with […], Lisbon, Portugal) and subjected to the amplification protocol described by the manufacturer, using a melting temperature of 60 °C. The relative gene expression was determined by the 2^-ΔΔCt method and normalized on Glyceraldehyde-3-Phosphate Dehydrogenase (GAPDH), which was the endogenous reference and relative to the untreated cells (control condition).

U87 cells = test: Quantitative real-time PCR of mRNA levels; type: cell-based, human; settings: 24 h
Description: as §1

in vivo = settings: male, Sprague-Dawley, rat; for Kp at 60 min: R (ratio of concentration between CSF and bloodstream)
Description: Male Sprague-Dawley rats (200–250 g) were purchased from the Charles River laboratories (Calco, Italy). BCA was administered to rats by intravenous and oral routes in order to evaluate the pharmacokinetic profiles in the bloodstream and cerebrospinal fluid (CSF). For the intravenous administration, BCA EO (84% w/w BCA content) was dissolved in ethanol to obtain a final BCA concentration of 8 mg/mL. A group (n = 4) of rats, fasted for 24 h, was anesthetized during the experimental period and then received via a femoral intravenous infusion (rate = 10 μL/min; 5 min) 50 µL of the 8 mg/mL ethanolic solution (BCA dose 2 mg/kg). This dosage was chosen basing on a previous study where BCA was intravenously administered to rats at a dose of about 1.5 mg/kg as a minor component of Artemisiae argyi Folium EO (5.3% w/w). For oral administration, BCA EO was dissolved in corn oil to obtain a final BCA concentration of 20 mg/mL. A total of 500 µL of this corn oil solution was orally administered by gavage to a group (n = 4) of rats kept fasting for 24 h (BCA dose 50 mg/kg).
At the end of the intravenous and oral administrations and at fixed time points, blood samples (100 μL) were collected. Moreover, CFS samples (about 30 μL) were withdrawn using the cisternal puncture method previously described. This method requires a single needle stick and allows the collection of serial (about 30 μL) CSF samples that are virtually blood-free. A total volume of a maximum of 120 μL of CSF/rat (i.e., four 30 μL samples/rat) was collected during the experimental session, choosing the time points (n = 4) to allow the restoration of the CSF physiological volume. The CSF samples (10 μL) were immediately analyzed via HPLC (see below) for the quantification of BCA. For the BCA analysis in the bloodstream, the blood samples (n = 4) were immediately added to 200 μL of ice-cold CH3CN, then 100 μL of the internal standard dissolved in CH3CN (100 μM GER-UDCA, obtained by the conjugation of geraniol with ursodeoxycholic acid) was further inserted. The samples were centrifuged at 16,000× g for 5 min, then about 300 μL of the supernatant was withdrawn and further centrifuged. Finally, 10 μL was analyzed via HPLC (see below) for BCA quantification. A blood sample (100 μL) was collected from each rat before the administration of the compound and was used as a control. The control samples were immediately added to 300 μL of ice-cold CH3CN in the absence of the internal standard and then treated as described above.
The BCA was quantified by the HPLC method, using a chromatographic apparatus that consisted of a modular system (model LC-10 AD VD pump and model SPD-10A VP variable wavelength UV−vis detector; Shimadzu, Kyoto, Japan) and an injection valve with a 20 μL sample loop (model 7725; Rheodyne, IDEX, Torrance, CA, USA). The separations were performed on a 5 μm Hypersil BDS C-18 column (150 mm × 4.6 mm i.d.; ThermoFisher Scientific S.p.A., Milan, Italy) equipped with a guard column packed with the same Hypersil material at room temperature by injecting 10 µL of the samples into the apparatus. Data were acquired and processed using CLASS-VP software, version 7.2.1 (Shimadzu Italia, Milan, Italy), installed on a personal computer. The mobile phase consisted of an isocratic mixture of water and acetonitrile at a ratio of 10:90 (v/v), with a flow rate of 1 mL/min. The detector was set at 205 nm. The retention times obtained were 7.5 min for BCA and 5.6 min for GER-UDCA.
The chromatographic precision was evaluated by repeated analyses (n = 6) of the same sample solution containing 100 μM (20.435 µg/mL) BCA dissolved in a mixture of water and CH3CN 25:75 (v/v). The chromatographic precision, expressed as the relative standard deviation (RSD) value, was 0.84%. […]

[3] = EU 200 µM, BCA 125 µM, alone or in combination
[4] = iv, 2 mg/kg, cerebrospinal fluid (CSF)
[5] = po, 50 mg/kg, cerebrospinal fluid (CSF)

For C=C1CC/C=C(\C)CC[C@@H]2[C@@H]1CC2(C)C [BCA, β-Caryophyllene], the cell viability (HMC3 cells [1]) was “did not affect”, the “PTEN mRNA expression, change vs control” value (HMC3 cells [2]; EU 200 µM or BCA 125 µM) was “no effect” and the “BAK1 mRNA expression, change vs control” value (HMC3 cells [2]; [3]) was “+59.8%”. For the same molecule, the “BCL2 mRNA expression, change vs control” value (HMC3 cells [2]; [3]) was −56.2%, the “CDK4 mRNA levels, change vs control” value (HMC3 cells [2]; [3]) was “no effects” and the “MDM2 mRNA expression, change vs control” value (HMC3 cells [2]; [3]) was “+34.2%”. For the same molecule, the “TP53 mRNA expression, change vs control” value (HMC3 cells [2]; [3]) was “+155.5%”, the “VEGFA mRNA expression, change vs control” value (HMC3 cells [2]; [3]) was −57% and the “PTEN mRNA expression, change vs control” value (U87 cells; EU 200 µM or BCA 125 µM) was “+171.8%”. For the same molecule, the “BAK1 mRNA expression, change vs control” value (U87 cells; [3]) was “+129.6%”, the “BAX mRNA expression, change vs control” value (U87 cells; [3]) was “+35.0%” and the “BCL2L1 mRNA expression, change vs control” value (U87 cells; [3]) was −42.2%. For the same molecule, the “BCL2 mRNA expression, change vs control” value (U87 cells; [3]) was −54.8%, the “CASP9 mRNA expression, change vs control” value (U87 cells; [3]) was “+98.5%” and the “MDM2 mRNA expression, change vs control” value (U87 cells; [3]) was −49.3%. The “TP53 mRNA expression, change vs control” value (U87 cells; [3]) was “+506.4%”, the “VEGFA mRNA expression, change vs control” value (U87 cells; [3]) was −56.5% and the “CDK4 mRNA levels, change vs control” value (U87 cells; EU 200 µM, BCA 125 µM, alone or in combination, normalized to GAPDH) was “no effects”. The bioavailability (in vivo; F (absolute bioavailability)) was 2.11 ± 0.03%, the half-life (in vivo; iv, 2 mg/kg) was 49.7 ± 2 min and the “time at which CSF concentration decreased to zero” value (in vivo; iv, 2 mg/kg) was no more than 150 min. The “time at which bloodstream concentration decreased to zero” value (in vivo; iv, 2 mg/kg) was no more than 180 min, the AUC (in vivo; iv, 2 mg/kg, bloodstream) was 108000 ng·h/mL and the AUC (in vivo; [4]) was 6290 ng·h/mL. The Cmax (in vivo; [4]) was 8000 ± 800 ng/mL, the Kp at 60 min (in vivo; iv, 2 mg/kg) was 0.08 ± 0.01 and the Kp at 30 min (in vivo; iv, 2 mg/kg, R (ratio of concentration between CSF and bloodstream) at CSF Tmax) was 0.13 ± 0.01. The Tmax (in vivo; [4]) was 30 min, the “Cmax, bloodstream” value (in vivo; po, 50 mg/kg) was 22530 ± 90 ng/mL and the “time at which CSF concentration decreased to zero” value (in vivo; po, 50 mg/kg) was 120 min. The “time at which bloodstream concentration decreased to 0” value (in vivo; po, 50 mg/kg) was 300 min, the “R (ratio of concentration between CSF and bloodstream) at CSF Tmax” value (in vivo; po, 50 mg/kg, 90 min) was 0.019 ± 0.002 and the AUC (in vivo; po, 50 mg/kg, bloodstream) was 56800 ng·h/mL. It also gave an AUC (in vivo; [5]) of 313 ng·h/mL, a Cmax (in vivo; po, 50 mg/kg, bloodstream) of 22500 ± 900 ng/mL and a Cmax (in vivo; [5]) of 420 ± 40 ng/mL. The Kp at 60 min (in vivo; po, 50 mg/kg) was roughly 0.01, the Kp at 90 min (in vivo; po, 50 mg/kg, R (ratio of concentration between CSF and bloodstream) at CSF Tmax) was roughly 0.02 and the Tmax (in vivo; po, 50 mg/kg, bloodstream) was 60 min. For the same molecule, the Tmax (in vivo; [5]) was 90 min.
